Reference: ChEMBL document CHEMBL1201862, “PubChem BioAssay data set” (2004)
Each block holds one compound with its values, some of them ahead of it. Activity calls are given as the source filed them.

Experiments:
Cytochrome P450 2D6 = Cytochrome P450 2D6 (Homo sapiens, UniProt P10635);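 also: CYP2D6 member of a cytochrome P450 panel assay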
Cytochrome P450 1A2 = molecular target: T1, Cytochrome P450 1A2 (Homo sapiens, UniProt P05177);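 also: PubChem cytochrome P450 panel assay, CYP1A2 panel member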
T1 sequence (P05177 whole entry): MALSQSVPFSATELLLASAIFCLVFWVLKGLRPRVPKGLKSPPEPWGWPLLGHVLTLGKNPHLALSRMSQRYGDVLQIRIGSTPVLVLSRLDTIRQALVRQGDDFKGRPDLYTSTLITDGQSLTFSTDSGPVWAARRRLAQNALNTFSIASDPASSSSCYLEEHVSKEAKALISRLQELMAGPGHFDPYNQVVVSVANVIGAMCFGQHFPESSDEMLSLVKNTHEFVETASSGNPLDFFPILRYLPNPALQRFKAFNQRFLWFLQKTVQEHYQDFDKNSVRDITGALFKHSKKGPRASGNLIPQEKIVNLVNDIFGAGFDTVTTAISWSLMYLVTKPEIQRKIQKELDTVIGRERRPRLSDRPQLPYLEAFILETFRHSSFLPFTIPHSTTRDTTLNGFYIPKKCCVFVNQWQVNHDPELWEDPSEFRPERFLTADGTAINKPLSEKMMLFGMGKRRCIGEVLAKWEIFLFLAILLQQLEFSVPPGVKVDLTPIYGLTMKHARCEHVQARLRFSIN

[1] = viability of uninfected HEp-2 cells – cell-based, HTS, cytotoxicity control for RSV inhibitor project, dose response (AID 2410); format: functional; conditions: human respiratory syncytial virus
Cytochrome P450 3A4 = Cytochrome P450 3A4 (Homo sapiens, UniProt P08684);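 also: CYP3A4 tested as one member of a cytochrome P450 panel screen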
Sequence of Cytochrome P450 3A4 (P08684 whole entry): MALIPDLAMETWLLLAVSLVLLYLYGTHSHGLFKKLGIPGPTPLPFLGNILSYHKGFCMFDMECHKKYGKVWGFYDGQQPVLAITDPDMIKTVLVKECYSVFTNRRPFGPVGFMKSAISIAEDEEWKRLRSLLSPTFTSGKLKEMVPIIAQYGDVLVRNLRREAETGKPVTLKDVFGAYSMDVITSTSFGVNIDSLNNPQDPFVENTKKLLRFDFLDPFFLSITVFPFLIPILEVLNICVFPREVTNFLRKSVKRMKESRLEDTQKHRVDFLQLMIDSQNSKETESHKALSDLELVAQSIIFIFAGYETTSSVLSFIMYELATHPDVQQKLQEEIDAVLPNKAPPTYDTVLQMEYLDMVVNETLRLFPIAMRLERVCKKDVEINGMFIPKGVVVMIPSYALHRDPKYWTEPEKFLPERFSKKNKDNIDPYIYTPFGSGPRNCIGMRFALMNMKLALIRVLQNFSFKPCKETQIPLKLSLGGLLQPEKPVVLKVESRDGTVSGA

Cytochrome P450 2C9 = Cytochrome P450 2C9 (Homo sapiens, UniProt P11712)
Sequence of Cytochrome P450 2C9 (P11712 whole entry): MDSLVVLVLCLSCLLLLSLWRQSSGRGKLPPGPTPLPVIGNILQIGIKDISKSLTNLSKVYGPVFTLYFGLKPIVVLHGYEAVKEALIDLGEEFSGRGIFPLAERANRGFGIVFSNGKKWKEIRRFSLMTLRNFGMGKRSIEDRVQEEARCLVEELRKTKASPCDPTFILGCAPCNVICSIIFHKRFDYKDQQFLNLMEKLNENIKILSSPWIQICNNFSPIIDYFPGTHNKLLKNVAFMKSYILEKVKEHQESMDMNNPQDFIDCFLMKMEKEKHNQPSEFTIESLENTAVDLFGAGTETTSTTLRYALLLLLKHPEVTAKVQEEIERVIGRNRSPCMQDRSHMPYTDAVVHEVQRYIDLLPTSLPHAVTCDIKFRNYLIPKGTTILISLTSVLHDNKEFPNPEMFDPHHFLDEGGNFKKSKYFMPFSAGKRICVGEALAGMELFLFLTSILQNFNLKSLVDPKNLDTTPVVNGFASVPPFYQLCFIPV

Cytochrome P450 2C19 = Cytochrome P450 2C19 (Homo sapiens, UniProt P33261); assay: Cytochrome panel assay with activity outcomes. Panel member name: p450-cyp2c19 Compounds with AC50 equal or less than 10 uM are considered active; format: functional; conditions: read-out: AC50
Sequence of Cytochrome P450 2C19 (P33261 whole entry): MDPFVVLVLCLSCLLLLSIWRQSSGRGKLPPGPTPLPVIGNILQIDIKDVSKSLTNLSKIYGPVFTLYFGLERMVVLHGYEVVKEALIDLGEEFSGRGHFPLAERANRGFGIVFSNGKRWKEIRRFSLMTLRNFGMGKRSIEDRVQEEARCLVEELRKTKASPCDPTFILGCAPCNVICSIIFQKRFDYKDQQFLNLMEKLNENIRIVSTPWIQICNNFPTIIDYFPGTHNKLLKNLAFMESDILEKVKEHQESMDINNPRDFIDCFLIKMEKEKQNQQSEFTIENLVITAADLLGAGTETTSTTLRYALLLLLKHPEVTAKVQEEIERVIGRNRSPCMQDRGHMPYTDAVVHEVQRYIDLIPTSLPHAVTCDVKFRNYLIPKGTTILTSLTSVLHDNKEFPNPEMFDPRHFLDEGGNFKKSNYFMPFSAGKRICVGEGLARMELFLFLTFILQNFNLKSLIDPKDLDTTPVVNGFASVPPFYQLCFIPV

Sequence of Cytochrome P450 2D6 (P10635 whole entry): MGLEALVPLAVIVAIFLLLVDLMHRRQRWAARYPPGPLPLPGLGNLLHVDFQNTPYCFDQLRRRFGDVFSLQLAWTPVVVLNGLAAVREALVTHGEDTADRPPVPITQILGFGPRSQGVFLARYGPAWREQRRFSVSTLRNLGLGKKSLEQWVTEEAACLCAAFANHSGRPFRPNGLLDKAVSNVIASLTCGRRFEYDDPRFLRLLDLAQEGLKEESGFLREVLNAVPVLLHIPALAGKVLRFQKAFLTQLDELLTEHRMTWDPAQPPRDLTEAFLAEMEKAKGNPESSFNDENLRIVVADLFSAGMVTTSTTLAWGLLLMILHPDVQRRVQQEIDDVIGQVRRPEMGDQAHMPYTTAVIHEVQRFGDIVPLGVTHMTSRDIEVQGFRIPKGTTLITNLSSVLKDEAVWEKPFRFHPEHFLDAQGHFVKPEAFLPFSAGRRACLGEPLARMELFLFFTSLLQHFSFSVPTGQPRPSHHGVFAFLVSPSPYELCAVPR

- AC50 (Cytochrome P450 2D6): 14.1 µM (inconclusive)
- AC50 (Cytochrome P450 1A2): 15.8 µM (inconclusive)
Structure (SMILES): O=C(NCCC1=CCCCC1)C1CCCN(c2nc3ccccc3o2)C1 (stereo unspecified)

Structure (SMILES): C[C@@]12C(=O)N(c3cccc(F)c3)C(=O)N1[C@H](c1ccc(Cl)cc1)[C@@H]1C(=O)N(C3CCCCC3)C(=O)[C@@H]12
- CC50 [1]: 38.5 µM (active)

- AC50 (Cytochrome P450 1A2): 1.26 µM (inconclusive)
- AC50 (Cytochrome P450 3A4): 15.8 µM (inconclusive)
Structure (SMILES): O=C(CSc1ccc(C(F)(F)F)cc1[N+](=O)[O-])Nc1ccccc1

- AC50 (Cytochrome P450 2D6): 25.1 µM (inconclusive)
Structure (SMILES): O=Nc1c(O)n(Cc2ccc(Cl)cc2)c2ccccc12
- CC50 [1]: 38.5 µM (active)

- AC50 (Cytochrome P450 2D6): 12.6 µM (inconclusive)
- AC50 (Cytochrome P450 2C9): 0.794 µM (inconclusive)
Structure (SMILES): COc1ccc2[nH]cc(CCNc3ccnc(-c4c(C)noc4C)n3)c2c1

- AC50 (Cytochrome P450 2D6): 14.1 µM (inconclusive)
- AC50 (Cytochrome P450 3A4): 25.1 µM (inconclusive)
- AC50 (Cytochrome P450 2C9): 12.6 µM (inconclusive)
Structure (SMILES): CC(Oc1ccc(Cl)cc1Cl)C(=O)/C=C/N(C)C (stereo unspecified)

- AC50 (Cytochrome P450 1A2): 3.16 µM (inconclusive)
- AC50 (Cytochrome P450 3A4): 15.8 µM (inconclusive)
Structure (SMILES): CCNc1ncc2nc(-c3cc(F)cc(F)c3)c(=O)n(C[C@H]3CCCO3)c2n1

- AC50 (Cytochrome P450 1A2): 12.6 µM (inconclusive)
- AC50 (Cytochrome P450 3A4): 25.1 µM (inconclusive)
Structure (SMILES): COc1ccc(-n2c(=O)c(-c3cc(F)cc(F)c3)nc3cnc(N4CCNCC4)nc32)cc1

- AC50 (Cytochrome P450 2C19): 4.47 µM (inconclusive)
- AC50 (Cytochrome P450 1A2): 25.1 µM (inconclusive)
Structure (SMILES): Cc1ccc(Cn2cnc3c(nnn3Cc3ccc(Cl)cc3)c2=O)cc1

- AC50 (Cytochrome P450 1A2): 22.4 µM (inconclusive)
Structure (SMILES): CCOC(=O)c1cnc2c(cnn2C)c1NCCCN(C)C

- AC50 (Cytochrome P450 2C19): 20 µM (inconclusive)
- AC50 (Cytochrome P450 1A2): 14.1 µM (inconclusive)
- AC50 (Cytochrome P450 3A4): 20 µM (inconclusive)
- AC50 (Cytochrome P450 2C9): 39.8 µM (inconclusive)
Structure (SMILES): CCC(CC)C(=O)c1c[nH]c(C(=O)NCCc2ccccn2)c1

- AC50 (Cytochrome P450 2D6): 15.8 µM (inconclusive)
- AC50 (Cytochrome P450 1A2): 12.6 µM (inconclusive)
Structure (SMILES): C#CCN1C(C)=C(C(=O)OC)[C@@H](c2cccc([N+](=O)[O-])c2)C(C(=O)OCC)=C1C

Structure (SMILES): O=C(O)Cc1cccnc1C(=O)O
- AC50 (Cytochrome P450 1A2): 39.8 µM (inconclusive)

- AC50 (Cytochrome P450 2C19): 39.8 µM (inconclusive)
- AC50 (Cytochrome P450 2D6): 15.8 µM (inconclusive)
- AC50 (Cytochrome P450 3A4): 10 µM (inconclusive)
- AC50 (Cytochrome P450 2C9): 25.1 µM (inconclusive)
Structure (SMILES): O=c1c(CCc2ccccc2)nc2cncnc2n1C1CC1

Structure (SMILES): Oc1ccc(C23CCCC2C2(CCCC2)c2ccc(O)cc2O3)c(O)c1 (stereo unspecified)
- CC50 [1]: 10.6 µM (active)

Structure (SMILES): CN1CCc2nc3sc(C(=O)NC(C)(C)C)c(N)c3cc2C1
- AC50 (Cytochrome P450 2C19): 31.6 µM (inconclusive)
- AC50 (Cytochrome P450 1A2): 14.1 µM (inconclusive)

Structure (SMILES): Cc1[nH]c2ccccc2c1/C=N/NC(=O)c1cccc(S(=O)(=O)Nc2cccc(C(F)(F)F)c2)c1
- CC50 [1]: 12.2 µM (active)

Structure (SMILES): C/C(=N/NS(=O)(=O)c1ccc(Br)cc1)c1ccc(NC(=O)c2ccc(C)o2)cc1
- CC50 [1]: 38 µM (active)

Structure (SMILES): CCCCCCC[n+]1ccc(-c2cc[n+](CCCCCCC)cc2)cc1
- AC50 (Cytochrome P450 2C19): 10 µM (inconclusive)
- AC50 (Cytochrome P450 1A2): 31.6 µM (inconclusive)
- AC50 (Cytochrome P450 2C9): 39.8 µM (inconclusive)

Structure (SMILES): COc1ccc(-n2c(Cc3cccc([N+](=O)[O-])c3)nc3ccccc3c2=O)cc1
- CC50 [1]: > 50 µM (active)

- AC50 (Cytochrome P450 1A2): 8.91 µM (inconclusive)
Structure (SMILES): Cc1cc(Nc2ccccc2)nc(N)n1

Structure (SMILES): O=S(=O)(Cc1ccccc1)N1CCC(c2nc(O)c3nnn(Cc4cccc(Cl)c4)c3n2)CC1
- CC50 [1]: 48.9 µM (active)
